Measured values: US11976083B2, “Inhibitors of peptidylarginine deiminases” (Gilead Sciences, Inc., priority 2020, dated 2024)

Target: T1, human PAD4 (Homo sapiens, UniProt Q9UM07)
T1 construct: human PAD4 (NM_012387), A2-P663, was PCR amplified; His-SUMO (N, cleaved yes); made in house; host or cells: E. coli BL21(DE3)
Experiment: In vitro PAD4 BAEE biochemical assay
Conditions: BAEE substrate 3 mM, 5 nM PAD4, 2 mM calcium chloride; geometric mean of multiple experiments
Method in brief: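 Recombinant human PAD4 (5 nM final) with 2 mM CaCl2 was preincubated with compound 30 min at 25 °C in MOPS buffer pH 7.6, then reacted with 3 mM BAEE for 2 h at 25 °C. After EDTA stop, released ammonia was detected by o-phthalaldehyde/DTT fluorescence (ex 405/em 535 nm); IC50 from four-parameter fit, geometric mean.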

T1 sequence (Q9UM07 2-663): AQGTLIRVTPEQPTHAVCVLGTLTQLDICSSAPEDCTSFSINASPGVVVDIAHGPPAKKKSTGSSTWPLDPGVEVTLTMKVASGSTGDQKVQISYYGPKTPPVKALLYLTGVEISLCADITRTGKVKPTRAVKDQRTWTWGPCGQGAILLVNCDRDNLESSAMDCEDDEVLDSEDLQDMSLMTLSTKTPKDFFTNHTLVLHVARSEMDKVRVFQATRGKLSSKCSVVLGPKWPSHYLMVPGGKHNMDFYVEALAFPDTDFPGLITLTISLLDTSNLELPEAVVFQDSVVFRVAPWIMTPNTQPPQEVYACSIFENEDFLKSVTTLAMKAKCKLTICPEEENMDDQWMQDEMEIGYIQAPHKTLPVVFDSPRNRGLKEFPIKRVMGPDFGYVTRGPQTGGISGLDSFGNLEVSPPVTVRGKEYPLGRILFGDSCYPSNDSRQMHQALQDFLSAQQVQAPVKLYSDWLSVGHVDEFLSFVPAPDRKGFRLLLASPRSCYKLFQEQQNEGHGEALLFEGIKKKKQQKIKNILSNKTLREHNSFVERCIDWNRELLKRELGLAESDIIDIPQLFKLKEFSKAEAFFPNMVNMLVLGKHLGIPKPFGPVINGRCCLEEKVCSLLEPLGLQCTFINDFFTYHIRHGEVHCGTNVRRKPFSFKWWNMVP

IC50 [nM]	Compound
48	COc1cc(C(=O)N2[C@H]3CC[C@@H]2[C@H](N)C3)cc2nc(-c3cc4ccc5nc4n3CCCCCCCC(=O)N(C)C5)n(C)c12 [Example 256, 17-[5-[(1~{R},2~{R},4~{S})-2-amino-7-azabicyclo[2.2.1]heptane-7-carbonyl]-7-methoxy-1-methyl-benzimidazol-2-yl]-10-methyl-1,10,19-triazatricyclo[10.5.2.0^{15,18}]nonadeca-12(19),13,15(18),16-tetraen-9-one]
86	COc1cc(C(=O)N2CC[C@@H](OCC3CC3)[C@@H](N)C2)cc2nc(-c3cc4ccc5nc4n3CCCCC[C@@H]3C[C@H]3C(=O)N[C@@H]5C)n(C)c12 [Example 490, (2~{R},5~{R},7~{R})-14-[5-[(3~{S},4~{R})-3-amino-4-(cyclopropylmethoxy)piperidine-1-carbonyl]-7-methoxy-1-methyl-benzimidazol-2-yl]-2-methyl-3,13,19-triazatetracyclo [11.5.2.0^{5,7}.0^{16,20}] icosa-1(19),14,16(20), 17-tetraen-4-one]
409	COc1cc(C(=O)N[C@@H]2CNC[C@@H](O)C2)cc2nc(-c3cc4ccc5nc4n3CCCCCCC(C)(C)C(=O)N[C@@H]5C)n(C)c12 [Example 529, ~{N}-[(3~{S},5~{S})-5-hydroxy-3-piperidyl]-7-methoxy-1-methyl-2-[(11~{R})-8,8,11-trimethyl-9-oxo-1,10,19-triazatricyclo[10.5.2.0^{15,18}]nonadeca-12(19),13,15(18),16-tetraen-17-yl]benzimidazole-5-carboxamide]
37	COc1cc(C(=O)N2C[C@H](N)[C@@H]3CC[C@H]2C3)cc2nc(-c3cc4ccc5nc4n3CCCCCCC(C)(C)C(=O)N[C@@H]5C)n(C)c12 [Example 441, (11~{R})-17-[5-[(1~{S),4~{R},5~{R})-4-amino-2-azabicyclo[3.2.1]octane-2-carbonyl]-7-methoxy-1-methyl-benzimidazol-2-yl]-8,8,11-trimethyl-1,10,19-triazatricyclo[10.5.2.0^{15,18}]nonadeca-12(19),13,15(18),16-tetraen-9-one]
91	COc1cc(C(=O)N2CC[C@@H](OC)[C@@H](N)C2)cc2nc(-c3cc4ccc5nc4n3CCCCCc3cccc(C(F)F)c3C(=O)N[C@@H]5C)n(C)c12 [Example 397, (2~{R})-17-[5-[(3~{S},4~{R})-3-amino-4-methoxy-piperidine-1-carbonyl]-7-methoxy-1-methyl-benzimidazol-2-yl]-6-(difluoromethyl)-2-methyl-3,16,22-triazatetracyclo[14.5.2.0^{5,10}.0^{19,23}] tricosa-1(22),5(10),6,8,17,19(23),20-heptaen-4-one]
115	COc1cc(C(=O)N2CC[C@@H](OC)[C@@H](N)C2)cc2nc(-c3cc4ccc5nc4n3CC(F)(F)CCCCC(C)(C)C(=O)N[C@@H]5C)n(C)c12 [Example 608, (11~{R})-17-[5-[(3~{S}, 4~{R})-3-amino-4-methoxy-piperidine-1-carbonyl]-7-methoxy-1-methyl-benzimidazol-2-yl]-3,3-difluoro-8,8,11-trimethyl-1,10,19-triazatricyclo[10.5.2.0^ {15,18}]nonadeca-12,14,16,18-tetraen-9-one]
104	COc1cc(C(=O)N2CCC[C@@H](N)C2)cc2nc(-c3cc4ccc5nc4n3C[C@@H]3C[C@H]3CCCC(C)(C)C(=O)N[C@@H]5C)n(C)c12 [Example 274, (3˜{R},5˜{R},12˜{R})-18-[5-[(3˜{R})-3-aminopiperidine-1-carbonyl]-7-methoxy-1-methyl-benzimidazol-2-yl]-9,9,12-trimethyl-1,11,20-triazatetracyclo[11.5.2.0^{3,5}.0^{16,19}]icosa-13(20),14,16(19),17-tetraen-10-one]
30	COc1cc(C(=O)N2[C@@H]3CC[C@@H](N)[C@H]2CC3)cc2nc(-c3cc4ccc5nc4n3CC(F)(F)CCC[C@@H]3C[C@H]3C(=O)N[C@@H]5C)n(C)c12 [Example 752, (2~{R},5~{R},7~{R})-14-[5-[(1~{R},2~{R},5~{R})-2-amino-8-azabicyclo[3.2.1]octane-8-carbonyl]-7-methoxy-1-methyl-benzimidazol-2-yl]-11,11-difluoro-2-methyl-3,13,19-triazatetracyclo[11.5.2.0^ {5,7}.0^{16,20}]icosa-1(19),14,16(20),17-tetraen-4-one]
12	C[C@H]1NC(=O)[C@@H]2C[C@@]2(F)CCCCCn2c(-c3nc4cc(C(=O)N[C@H]5CNCC[C@@H]5F)c(F)cc4n3C3CC3)cc3ccc1nc32 [Example 388]
82	COc1cc(C(=O)N2[C@H]3CC[C@@H]2[C@H](N)C3)cc2nc(-c3cc4ccc5nc4n3CCCCCCNC(=O)c3ncccc3-5)n(C)c12 [Example 91, 17-[5-[(1˜{R},2˜{R},4˜{S})-2-amino-7-azabicyclo[2.2.1]heptane-7-carbonyl]-7-methoxy-1-methyl-benzimidazol-2-yl]-6,9,16,22-tetrazatetracyclo[14.5.2.0^{2,7}.0^{19,23}]tricosa-1(22),2,4,6,17,19(23),20-heptaen-8-one]
18	(2~{R})-17-[5-[(1~{S}, 4~{R},5~{R})-4-amino-2- azabicyclo[3.2.1]octane-2- carbonyl]-1-cyclopropyl- 7-fluoro-benzimidazol-2-yl]- 6-(difluoromethyl)-2- methyl-3,7,16,22- tetrazatetracyclo[14.5.2.0^ {5,10}.0^{19,23}]tricosa- 1(22),5(10),6,8,17,19(23),20- heptaen-4-one [Example 718]
49	COc1cc(C(=O)N2[C@H]3CC[C@@H]2[C@H](N)C3)cc2nc(-c3cc4ccc5nc4n3CCCCC[C@H](OC)C(C)(C)C(=O)N[C@@H]5C)n(C)c12 [Example 220, (7~{S),11~{R})-17-[5-[(1~{R},2~{R},4~{S})-2-amino-7-azabicyclo[2.2.1]heptane-7-carbonyl]-7-methoxy-1-methyl-benzimidazol-2-yl]-7-methoxy-8,8,11-trimethyl-1,10,19-triazatricyclo[10.5.2.0^{15,18}]nonadeca-12(19),13,15(18),16-tetraen-9-one]
90	CO[C@@H]1CCN(C(=O)c2cc(F)c3c(c2)nc(-c2cc4ccc5nc4n2CCCCCC[C@H](c2cccc(Cl)n2)C(=O)N[C@@H]5C)n3C2CC2)C[C@@H]1N [Example 872, (8~{R},11~{R})-17-[5-[(3~ {S},4~{R})-3-amino-4-methoxy-piperidine-1-carbonyl]-1-cyclopropyl-7-fluoro-benzimidazol-2-yl]-8-(6-chloro-2-pyridyl)-11-methyl-1,10,19-triazatricyclo[10.5.2.0^ {15,18}]nonadeca-12(19), 13,15(18),16-tetraen-9-one]
67	COc1cc(C(=O)N2CCC[C@@H](N)C2)cc2nc(-c3cc4ccc5nc4n3CCCCCCC(C)(C)C(=O)N[C@@H]5C)n(C)c12 [Example 16, (11~{R})-17-[5-[(3~{R})-3-aminopiperidine-1-carbonyl]-7-methoxy-1-methyl-benzimidazol-2-yl]-8,8,11-trimethyl-1,10,19-triazatricyclo[10.5.2.0^{15,18}]nonadeca-12(19),13,15(18),16-tetraen-9-one]
124	COc1cc(C(=O)N2CC[C@@H](OC)[C@@H](N)C2)cc2nc(-c3cc4ccc5nc4n3CCCCCc3nccc(F)c3C(=O)N[C@@H]5C)n(C)c12 [Example 656, (2˜{R})-17-[5-[(3˜{S},4˜{R})-3-amino-4-methoxy-piperidine-1-carbonyl]-7-methoxy-1-methyl-benzimidazol-2-yl]-6-fluoro-2-methyl-3,9,16,22-tetrazatetracyclo[14.5.2.0^{5,10}.0^{19,23}]tricosa-1(22),5,7,9,17,19(23),20-heptaen-4-one]
193	COc1cc(C(=O)N2CC[C@@H](OC)[C@@H](N)C2)cc2nc(-c3cc4ccc5nc4n3CC(F)(F)CCCOC(C)(C)C(=O)N[C@@H]5C)n(C)c12 [Example 588, (11~{R})-17-[5-[(3~{S},4~ {R})-3-amino-4-methoxy-piperidine-1-carbonyl]-7-methoxy-1-methyl-benzimidazol-2-yl]-3,3-difluoro-8,8,11-trimethyl-7-oxa-1,10,19-triazatricyclo[10.5.2.0^ {15,18}]nonadeca-12(19),13,15(18), 16-tetraen-9-one]
17	COc1cc(C(=O)N2C[C@H]3CC[C@@H]2[C@@H]3N)cc2nc(-c3cc4ccc5cc4n3CCCCCCC(C)(C)C(=O)N[C@@H]5C)n(C)c12 [Example 749, (11~{R})-17-[5-[(1~{R},4~ {R},7~{R})-7-amino-2-azabicyclo[2.2.1]heptane-2-carbonyl]-7-methoxy-1-methyl-benzimidazol-2-yl]-8,8,11-trimethyl-1,10-diazatricyclo[10.5.2.0^{15,18}] nonadeca-12(19), 13,15(18),16-tetraen-9-one]
29	C[C@H]1NC(=O)c2nccnc2CCCCCn2c(-c3nc4cc(C(=O)N5C[C@H](N)[C@@H]6CC[C@H]5C6)cc(F)c4n3C3CC3)cc3ccc1nc32 [Example 485, (2~{R})-17-[5-[(1~{S),4~{R},5~{R})-4-amino-2-azabicyclo[3.2.1]octane-2-carbonyl]-1-cyclopropyl-7-fluoro-benzimidazol-2-yl]-2-methyl-3,6,9,16,22-pentazatetracyclo[14.5.2.0^{5,10}.0^{19, 23}]tricosa-1(22),5(10),6,8,17,19(23),20-heptaen-4-one]
24	C[C@H]1NC(=O)[C@@H]2C[C@H]2CC[C@@H]2[C@H](Cn3c(-c4nc5cc(C(=O)N[C@H]6CNCC[C@@H]6F)c(F)cc5n4C)cc4ccc1nc43)C2(F)F [Example 386, 2-[(3~{R},5~{R},8~{R},10~{R},13~{R})-4,4-difluoro-13-methyl-11-oxo-1,12,21-triazapentacyclo[12.5.2.0^{3,5}.0^{8,10}.0^ {17,20}]henicosa-14(21),15,17(20),18-tetraen-19-yl]-6-fluoro-~{N}-[(3~{S},4~{S})-4-fluoro-3-piperidyl]-1-methyl-benzimidazole-5-carboxamide]
